Data on nine compounds can be found in US8916542B2, “Chitosan derivatives, compositions and related methods of use” (Synedgen, Inc., priority 2008, dated 2014).

Like-named read-outs stand apart in the source and are kept apart here.

The subject of assay [1] is P. aeuriginosa strain PA01 (ATCC BAA-47). The assay can be described thus: Checkerboard assay chitosan-arginine and Tobramycin. In kind it is cell-based. As to conditions: Pseudomonas aeruginosa, ATCCBAA47, read-out: Tobramycin (MIC), alone; determined alongside each C/A lot. The procedure:
Bacteria were incubated at 37° C. for the standard 20 hours.
P. aeuriginosa produces the fluorescent pigment pyocyanin, which can be correlated with bacterial growth.

For assay [2], the system named is Pseudomonas aeruginosa, PA01. The assay can be described thus: MIC of antibiotics with added chitosan-arginine (live/dead checkerboard). It is filed as cell-based. As to conditions: for factor of decrease of MIC: addition of 4 μg/ml chitosan-arginine. The procedure: The assay was conducted as follows. In each case, the minimum inhibitory concentration (MIC) in μg/ml was determined for the antibiotic alone against Pseudomonas aeruginosa.

A further assay has as its system A. baumannii. The assay can be described thus: Sensitization summary: A. baumannii to Gentamicin. It is filed as cell-based, Acinetobacter baumannii. From the text: (§1) By definition, resistance is defined by a “resistance breakpoint” above which a bacterium is considered resistant (and is related to side effects and toxicity).
For another assay, the system named is K. pneumoniae. The assay can be described thus: Sensitization summary: K. pneumoniae to Gentamicin. It is filed as cell-based, Klebsiella pneumoniae. The protocol: as §1
(§2) Approximately 10^5 cells were added to each of the wells. […] Optical density readings of the plate were taken, and averaged to determine inhibited samples Inhibition is defined by the final optical density (OD) being less than or equal to ½ the control OD.

Assay [3] relates to MRSA strain MW-2 (ATCC BAA-1707). The assay can be described thus: Checkerboard vCFU assay chitosan-arginine and Oxacillin in PBS. It is filed as cell-based, Staphylococcus aureus. As to conditions: alone. The procedure:
Approximately 10^6 cells/mL were added to each well. Incubation occurred at ambient temperature for 20 h, then bacteria were centrifuged and resuspended in an appropriate growth media. The optical density (OD) was read over the course of 18 h at 37° C. The time (in seconds) to an arbitrary threshold OD of 0.15 was used with reference to a growth curve, to calculate the initial bacterial concentration of bacteria (vCFU).

The subject of a further assay is MRSA. The assay can be described thus: Sensitization summary: MRSA to Oxacillin. It is filed as cell-based, Staphylococcus aureus. The procedure: as §1, §2
Assay [4] deals with MRSA strain MW-2 (ATCC BAA-1707). The assay can be described thus: Standard checkerboard assay in Mueller Hinton media, chitosan-arginine and Oxacillin. As to conditions: Staphylococcus aureus. It is filed as cell-based. The procedure: Bacteria were incubated at 37° C. for the standard 20 hours. MRSA MIC values were obtained by OD595 (optical density). The entire experiment was repeated three times.

Assay [5] shares this test system. The assay can be described thus: Chitosan-arginine/Oxacillin checkerboard growth inhibition assay. It is filed as cell-based, Staphylococcus aureus. Conditions: chitosan-arginine 1 μg/mL alone or Oxacillin 0.78 μg/mL alone. The protocol:
Approximately 10^5 cells was added to each of the wells. The optical density of the plate was read over the course of 24 hours at 37° C.

For assay [6], the system named is VRE (Vancomycin resistant Enterococcus). The assay can be described thus: Sensitization summary: VRE to Vancomycin. It is filed as cell-based, Enterococcus faecium. Conditions: for Antibiotic concentration (MIC) in presence of chitosan-arginine: 24 hour treatment.
Description: as §1

Assay [7] deals with Mupirocin and Methicilin resistant Staphylcoccus aureus (MMRSA, 2-4C strain). The assay can be described thus: Checkerboard time course assay (vCFU) in water. It is filed as cell-based, Staphylococcus aureus. The protocol:
(§3) The plate was allowed to sit for 24 hours, before being centrifuged at 4000 RPM for 10 minutes, and resuspended in an appropriate enriched growth media (LB or Todd Hewitt Broth). The optical density of the plate was read over the course of 24 hours at 37° C. The optical density readings were used to compute a time to an arbitrary threshold of 0.25, which is correlated using a growth curve for this MMRSA, to virtual colony forming (vCFU) counts.

In the next assay the test system is MMRSA. The assay can be described thus: Sensitization summary: MMRSA to Mupirocin. Conditions: Mupirocin resistance breakpoint 8 μg/mL. In kind it is cell-based, Staphylococcus aureus. The procedure:
as §1, §3

[8] abbreviates: 0 μg/ml chitosan-arginine added (antibiotic alone).
The mark [9] stands for this setting: 0.5 μg/ml chitosan-arginine added.
The mark [10] stands for this setting: 1 μg/ml chitosan-arginine added.
The mark [11] stands for this setting: 2 μg/ml chitosan-arginine added.
Where [12] appears, read: 4 μg/ml chitosan-arginine added, * = lowest value measured.
Setting [13] is: with chitosan-arginine 0.125 μg/mL, 24 hour treatment.

On to `NC[C@H]1O[C@H](O[C@H]2[C@H](O)[C@@H](O[C@H]3O[C@H](CO)[C@@H](O)[C@H](N)[C@H]3O)[C@H](N)C[C@@H]2N)[C@H](N)C[C@@H]1O` [Tobramycin], for which, in assay [1], the MIC is 0.5 mg/L.
Turning to `[Ag]` [Silver], the MIC of antibiotic is 0.042 µg/mL in assay [2] (setting [8]); 0.021 µg/mL in assay [2] (setting [9]); 0.021 µg/mL in [2] (setting [10]); 0.005 µg/mL in assay [2] (setting [11]); ≤ 0.001* μg/ml in [2] (setting [12]). Also, the “factor of decrease of MIC” value in assay [2] was at least 40.
With Neomycin, the MIC of antibiotic was found to be 8 µg/mL in assay [2] (setting [8]); 4 µg/mL in assay [2] (setting [9]); 2 µg/mL in assay [2] (setting [10]); 1 µg/mL in assay [2] (setting [11]); 0.5 µg/mL in [2] (setting [12]). Also, the “factor of decrease of MIC” value in [2] worked out at 16.
Consider Gentamicin, for which the “MIC of antibiotic alone against resistant bacteria” value (from here on “MIC of antibiotic alone”) in the assay on A. baumannii (A. baumannii, Gentamicin resistance breakpoint 64 μg/mL) is listed as “A. baumannii (64) μg/mL”; in the assay on K. pneumoniae (K. pneumoniae, Gentamicin resistance breakpoint 64 μg/mL) it was “K. pneumoniae (64) μg/mL”. The “Antibiotic concentration (MIC) in presence of chitosan-arginine” value (from here on “Antibiotic concentration (MIC)”) in the assay on A. baumannii (setting [13]) and in the assay with K. pneumoniae (setting [13]) was 16 mg/L throughout.
Take `CO[C@H]1/C=C/O[C@@]2(C)Oc3c(C)c(O)c4c(O)c(c(/C=N/N5CCN(C)CC5)c(O)c4c3C2=O)NC(=O)/C(C)=C\C=C\[C@H](C)[C@H](O)[C@@H](C)[C@@H](O)[C@@H](C)[C@H](OC(C)=O)[C@@H]1C` [Rifampicin]: the MIC of antibiotic is 8 µg/mL in assay [2] (setting [8]); 4 µg/mL in assay [2] (setting [9]); 2 µg/mL in assay [2] (setting [10]); 1 µg/mL in [2] (setting [11]); 0.5 µg/mL in [2] (setting [12]). Further, the “factor of decrease of MIC” value in [2] is 16.
`Cc1onc(-c2ccccc2)c1C(=O)N[C@@H]1C(=O)N2[C@@H]1SC(C)(C)[C@@H]2C(=O)O` [Oxacillin]: in assay [3], the bactericidal concentration is above 6.25 µg/mL. Moreover, the “MIC of antibiotic alone” value with MRSA (MRSA, Oxacillin resistance breakpoint 4 μg/mL) is “MRSA (>25) μg/mL”. For the same compound, the “Antibiotic concentration (MIC)” value with MRSA (with chitosan-arginine 4 μg/mL, 24 hour treatment) was 0.2 mg/L. In addition, the MIC worked out at 4 mg/L in assay [4] (read-out: MIC of Oxa alone) and 1 mg/L in assay [4] (read-out: MIC of Oxa with C/A). Moreover, the “effect on growth of the bacteria, agent alone” value in [5] was “Neither antimicrobial alone had a significant an effect”.
With `O=C(O)c1cn(C2CC2)c2cc(N3CCNCC3)c(F)cc2c1=O` [Ciprofloxacin], the MIC of antibiotic was 2 µg/mL in assay [2] (setting [8]), 1 µg/mL in assay [2] (setting [9]), 1 µg/mL in [2] (setting [10]) and “.5 µg/mL” in assay [2] (setting [11]). In [2], the “factor of decrease of MIC” value is on record as at least 80.
Regarding `CN[C@H](CC(C)C)C(=O)N[C@H]1C(=O)N[C@@H](CC(N)=O)C(=O)N[C@H]2C(=O)N[C@H]3C(=O)N[C@H](C(=O)N[C@H](C(=O)O)c4cc(O)cc(O)c4-c4cc3ccc4O)[C@H](O)c3ccc(c(Cl)c3)Oc3cc2cc(c3O[C@@H]2O[C@H](CO)[C@@H](O)[C@H](O)[C@H]2O[C@H]2C[C@](C)(N)[C@H](O)[C@H](C)O2)Oc2ccc(cc2Cl)[C@H]1O` [Vancomycin], the “MIC of antibiotic alone” value in assay [6] (VRE, Vancomycin resistance breakpoint 32 μg/mL) was “VRE (>32) μg/mL”. In addition, the entries for the “Antibiotic concentration (MIC)” value in [6] (with chitosan-arginine 2 μg/mL) and in assay [6] (with chitosan-arginine 4 μg/mL) were 2 mg/L and 12.5 mg/L, respectively.
As to `C/C(=C\C(=O)OCCCCCCCCC(=O)O)C[C@@H]1OC[C@H](C[C@@H]2O[C@H]2[C@@H](C)[C@H](C)O)[C@@H](O)[C@H]1O` [Mupirocin], in assay [7] (1 μg/mL), the “effect of mupirocin alone on MMRSA” value is reported as “completely ineffective”. Further, the “antibacterial effectiveness of Mupirocin alone” value in assay [7] (doses below 64 to 128 μg/mL) is recorded as “ineffective”. The “mupirocin concentration at which MMRSA is sensitive” value in [7] (mupirocin alone, 24 hours in water) was 128 µg/mL. The “lowest Mupirocin dose to which MMRSA is sensitized” value in assay [7] (with 4 μg/mL chitosan-arginine) came out at 8 µg/mL. Besides, the “MIC of antibiotic alone” value in the assay with MMRSA was “MMRSA (>64) μg/mL”.
